The results in this text go back to US9102697B2, “Trioxacarcins and uses thereof” (President and Fellows of Harvard College, priority 2010, dated 2015).

The assay has as its system self-complementary duplex 12-mer d(AATTACGTAATT) (SEQ ID NO: 1). Description: DNA alkylation detected by LC/MS. The format is biochemical. To be noted: for products from alkylated oligonucleotide after piperidine treatment: 1.0 M piperidine, 30 minutes at 95 °C; for covalent DNA-small molecule complex formed (LC/MS chromatogram): oligonucleotide 100 μM, 1 equiv compound, pH 7 buffer. The source says: Next, we performed a set of experiments to determine whether the DC-45-A2 and dideoxy-DC-45-A2 complexes observed by DNA-gel electrophoresis were covalent or not. A liquid chromatography-mass spectrometry (LC/MS) method was developed for the detection of DNA oligonucleotides and covalent DNA-small molecule complexes. The mass spectrometer was used in a negative ion mode under conditions that had been optimized for the detection of single-stranded nucleic acids.
To solutions of the oligonucleotide d(AATTACGTAATT) (SEQ ID NO: 1) (100 μM) in pH 7 buffer were added, in three separate reaction vials, 1 equiv of DC-45-A2, 1 equiv of iso-DC-45-A2, or 1 equiv of dideoxy-DC-45-A2. After incubation for 24 h at 23° C., it was evident from the LC/MS chromatogram that a covalent DNA-small molecule complex had formed in both the DC-45-A2 and dideoxy-DC-45-A2 reaction mixtures but not in the iso-DC-45-A2 reaction mixture (FIG. 13). The alkylated single-stranded oligonucleotide eluted as a signal that was separate from the non-alkylated oligonucleotide. […] The absence of an iso-DC-45-A2 complex is consistent with the absence of reactivity of this compound towards the oligonucleotide under the alkylation conditions in the DNA-gel experiment described in the section above. The IC50 values of the three compounds in antiproliferative assays are also depicted in FIG. 13.
To test whether or not alkylation by DC-45-A2 and dideoxy-DC-45-A2 occurs at the N7 guanine site via the same epoxide opening mechanism observed for trioxacarcin A, we treated samples of alkylated oligonucleotide with piperidine to provide a product solution with a final concentration of 1.0 M in piperidine. […] This fragmentation is consistent with induced single strand cleavage of the type observed in the Maxam-Gilbert G-specific reaction that is associated with N7 guanine alkylation. In the present case, the guanine residue has been excised and the phosphates at the 3′ and 5′ positions have been eliminated to give the two fragment strands.
General Method: To a solution of dsDNA [ds(AATTACGTAATT) (SEQ ID NO: 1), 1.07 mM] in alkylation buffer (86.7 μL, see above for preparation of solutions) in a 1.7-mL centrifuge tube was added a solution of DC-45-A2 in DMSO (2.00 μL, 5 mM). The sample was votexed, then rotated end-over-end at 23° C. for 2 h. The sample was stored at 4° C. for 16 h. The sample was diluted to a concentration of 5 μM of dsDNA. A 10 μL sample of the diluted solution was injected into a short oligonucleotide column (gradient elution with […] TEAB buffer and methanol, flow rate 150 μL/min) and the column output was monitored by mass spectrometry in a negative ionization mode. The doubly deionized DC-45-A2-alkylated single-stranded DNA oligonucleotide (mass/charge=2079.4) was detected at 9.32 min.
To five separate solutions (designated as vials 1-5) of duplex DNA oligonucleotide d(AATTACGTAATT) (SEQ ID NO: 1) (0.72 mM [concentration of the DNA duplex] in alkylation buffer [see paragraph above for preparation], 13.9 μL, 10 nmol, 1 equiv) in alkylation buffer (84.1 μL) were added, respectively, DC-45-A2 (5.0 mM solution in dimethylsulfoxide, 2.0 μL, 10 nmol, 1.0 equiv, vials 1 and 2), iso-DC-45-A2 (5.0 mM solution in dimethylsulfoxide, 2.0 μL, 10 nmol, 1.0 equiv, vial 3), and dideoxy-DC-45-A2 (5.0 mM solution in dimethylsulfoxide, 2.0 μL, 10 nmol, 1.0 equiv, vials 4 and 5). The samples were vortexed, then rotated end-over-end at 23° C. After 23 h 30 min, vials 2 and 5 were diluted with piperidine (10 μL) and placed in a heating block at 95° C. After 30 min, vials 2 and 5 were cooled by centrifugation for 30 seconds (VWR Labnet C-1200 Minicentrifuge). After a total reaction time of 24 h, a 5-μL aliquot was removed from each of the five reaction mixtures. Each aliquot was diluted with alkylation buffer (95 μL, see above for preparation). […]

As for Dideoxy-DC-45-A2, the “products from alkylated oligonucleotide after piperidine treatment” value is “pTAATT and AATTACp”. Further, where the note is “24 h at 23 °C, compared with DC-45-A2 complex”, the “relative abundance of the covalent complex” value is listed as “greater relative abundance”. In addition, the “covalent DNA-small molecule complex formed (LC/MS chromatogram)” value (24 h at 23 °C) was “had formed”.
As for `COc1c2c(c(O)c3c4c(c(C)cc13)[C@H]1O[C@]3(C(OC)OC)O[C@H]1[C@](O)(O4)[C@@]31CO1)C(=O)[C@@H](O)C[C@@H]2O` [iso-DC-45-A2, 11,12,13,15-tetraepi-DC-45-A2], the “covalent DNA-small molecule complex formed (LC/MS chromatogram)” value (24 h at 23 °C) is “not”.
For the molecule DC-45-A2, the “products from alkylated oligonucleotide after piperidine treatment” value is “pTAATT and AATTACp”. Also, for the setting “24 h at 23 °C”, the “covalent DNA-small molecule complex formed (LC/MS chromatogram)” value was “had formed”.
